Reference: paper PMC13188182, “Role of DZ2002 in reducing corneal graft rejection in rats by influencing Th17 activation via inhibition of the PI3K/AKT pathway and downregulation of TRAF1” (Open Life Sciences, 2026)

Biological target: T1, TRAF1
T1 construct: TRAF1 protein amine-coupled to carboxylated SPR chip
Test: surface plasmon resonance, TRAF1 immobilized
Format: binding
Settings: PBST running buffer; analyte 0-500 μM; Fc2-Fc1 double-referenced

N[C@@H](CCS)C(=O)O [L-homocysteine]
Kd: 246 µM
